Measured values as given in PMC4550478, “Metronidazole-triazole conjugates: Activity against Clostridium difficile and parasites” (European Journal of Medicinal Chemistry, 2015).
In brackets after ≈: the same amount, converted by molar mass. Where two headings read alike, the source gives them in different places.

Columns and labels:
[1] = test system: C. difficile VPI10463 ATCC 43255; assay: MIC broth microdilution, C. difficile VPI 10463; format: cell-based, Clostridium difficile; settings: VPI 10463, MtzS, 24 h, median of at least n = 4
Procedure: (§1) All compounds were tested for activity against a set of anaerobic C. difficile bacteria (630 ATCC BAA-1382, NAP1/027 M7404, NAP1/027 ATCC BAA-1803, VPI10463 ATCC 43255, CD26A54_S and CD26A54_R) and representative ESKAPE pathogens S. aureus (MRSA ATCC 43300), E. coli (ATCC 25922), K. pneumoniae (ATCC 700603), A. baumannii (ATCC 19606) and P. aeruginosa (ATCC 27853) using a standard broth microdilution assay. Selected compounds were tested for activity against H. pylori strains (26695, and clinical isolates MtzS 13/25, MtzR 98/285 and MtzR 13/61) using agar plate dilution, and for antimicrobial activity against […] Gram-positive bacterial strains: Enterococcus faecalis (VanA clinical isolate), Enterococcus faecium (MDR VanA ATCC 51559), Streptococcus pneumoniae (MDR ATCC 700677), S. aureus (MRSA ATCC 43300, MRSA clinical isolate, MRSA/DRSA clinical isolate, GISA NARSA NRS 1, GISA NARSA NRS 17, VRSA NARSA VRS1, VRSA NARSA VRS4 and VRSA NARSA VRS10) using broth microdilution. C. difficile strains were grown at 37 °C in a COY anaerobic chamber (5% H2, 10% CO2, 85% N2). H. pylori strains were grown at 37 °C under a microaerobic atmosphere (5% O2, 10% CO2). All facultative anaerobic bacteria were grown at 37 °C with normal atmospheric oxygen levels. All experiments were performed in duplicate with metronidazole, vancomycin, linezolid or colistin as positive controls for relevant strains (see Table 1). Positive growth control of bacteria and DMSO as well as a negative control of only media were included for every plate. Full assay details are provided in the supplementary information.
(§2) C. difficile ATCC BAA-1382, ATCC BAA-1803, ATCC 43255 and M7404 heat shocked spore stocks (10 µL) were transferred into the anaerobic chamber and 10 µL streaked onto pre-reduced (at least 2.5 hr in anaerobic chamber) BHIS agar plates supplemented with 0.1% w/v sodium taurocholate (BHIS(TA)). Plates were incubated for 24 hours prior to assay to give colonies of size 1-3mm diameter with characteristic uneven borders.
(§3) The minimum inhibition concentration was determined according to the CLSI Methods with modifications in broth and inoculum for C. difficile according to Babakhani et al.^7,8 Briefly, compounds were prepared to 20X final concentration in 100% water, 60% DMSO and 40% water or 60% DMSO and 40% media. The compounds along with standard antibiotics were serially diluted two-fold across the wells of 96-well non-binding surface plates (Non binding surface, Corning). The plates were placed in the anaerobic chamber overnight to reduce. C. difficile bacteria from BHIS(TA) agar plates were cultured anaerobically in BHIS at 37 °C overnight. A sample of culture was then diluted 40-fold in BHIS broth and incubated at 37 °C for approximately 4.5 hrs. The resultant mid-log phase culture (OD600= 0.5-0.6) was diluted to the final concentration of ~1×10^6 CFU/mL, then 50 µL was added to each well of the compound-containing 96-well plates. This gave final cell concentration of 5×10^5 CFU/mL, final volume 100 µL and 3% maximum DMSO concentration. Compound concentration was typically from 64 to 0.03 µg/mL. An antibiotic standard was included on each 96 well plate as well as a positive growth control (no compound) and sterility control (no bacteria). All the plates were covered and incubated at 37 °C for 24 h. MICs were the lowest concentration showing no visible growth.

[2] = test system: C. difficile NAP1/027 ATCC BAA-1803; assay: MIC broth microdilution, C. difficile NAP1/027 ATCC BAA-1803; format: cell-based, Clostridium difficile; settings: for MIC: Clostridioides difficile
Procedure: as §1, §2
as §3, with “All the plates were covered and incubated at 37 °C for 24 h.” left out

Cc1ncc([N+](=O)[O-])n1CCN=[N+]=[N-] [Compound 3, 1-(2-azidoethyl)-2-methyl-5-nitro-1H-imidazole]
MIC C. difficile VPI 10463 [1]: 0.5 µg/mL (≈ 2.55 µM) | MIC C. difficile NAP1/027 ATCC BAA-1803 24 hr ([2]; 24 hr incubation): 0.5 µg/mL (≈ 2.55 µM) | MIC C. difficile NAP1/027 ATCC BAA-1803 48 hr ([2]; 48 hr incubation): 1 µg/mL (≈ 5.1 µM) | MIC C. difficile NAP1/027 (footnote c) ([2]; NAP1/027 (footnote c: ATCC 43255), MtzS, 24 h, median of at least n = 4): 0.5 µg/mL (≈ 2.55 µM)

Cc1ncc([N+](=O)[O-])n1CCn1cc(CN2CCS(=O)(=O)CC2)nn1 [Compound 4o, 1-(2-(2-methyl-5-nitro-1H-imidazol-1-yl)ethyl)-4-((1,1-dioxothiomorpholin-4-yl)methyl)-1H-1,2,3-triazole]
MIC ([1]; Clostridioides difficile, ATCC 43255 / ATCC BAA-1803): > 64 µg/mL | MIC ([2]; ATCC 43255 / ATCC BAA-1803, NAP1/027 (footnote c: ATCC 43255), MtzS, 24 h, median of at least n = 4, read-out: MIC C. difficile NAP1/027 (footnote c)): > 64 µg/mL | MIC ([2]; ATCCBAA1803, 24 hr incubation, read-out: MIC C. difficile NAP1/027 ATCC BAA-1803 24 hr): > 64 µg/mL | MIC ([2]; ATCCBAA1803, 48 hr incubation, read-out: MIC C. difficile NAP1/027 ATCC BAA-1803 48 hr): > 64 µg/mL
